Columns and labels:
[1] = target: Cathepsin S (UniProt P25774); test: Cathepsin enzyme inhibition assay (fluorogenic peptide substrate Z-Val-Val-Arg-AMC), Cathepsin S; type: biochemical, human and mouse; conditions: enzyme 1 nM, substrate 20 μM, pH 6.5; read-out: CatS IC50
Method in brief: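 Human or mouse cathepsin S (1 nM) was run in 100 mM potassium phosphate pH 6.5 with 5 mM EDTA, 0.001% Triton X-100 and 5 mM DTT. The rise in AMC fluorescence from cleavage was measured, and IC50 values were calculated by standard methods and expressed in μM.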

[2] = target: Cat L (UniProt P07711); test: Cathepsin enzyme inhibition assay (fluorogenic peptide substrate Z-Val-Val-Arg-AMC), Cathepsin L; type: biochemical, human and mouse; conditions: enzyme 1 nM, substrate 20 μM, pH 6.5; read-out: CatL IC50
Method in brief: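 Cathepsin L at 1 nM was mixed with compound, then started with 20 μM Z-Val-Val-Arg-AMC in pH 6.5 potassium phosphate with EDTA, Triton X-100 and 5 mM DTT. AMC fluorescence (ex 360/em 465 nm) was followed over 20 min. IC50 is given in μM.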

Row | SMILES | IC50 [1] | IC50 [2]
1 | N#CC1(NC(=O)[C@@H]2C[C@@H](S(=O)(=O)c3ccc(N4CCNCC4)cc3Cl)CN2C(=O)C2(C(F)(F)F)CC2)CC1 [Example 163, (2S,4R)-4-(2-Chloro-4-piperazin-1-yl-benzenesulfonyl)-1-(1-trifluoromethyl-cyclopropanecarbonyl)-pyrrolidine-2-carboxylic acid (1-cyano-cyclopropyl)-amide formiate] | 0.3 nM | 2620 nM
2 | N#CCNC(=O)[C@@H]1C[C@@H](S(=O)(=O)c2ccccc2C(F)(F)F)CN1c1ccccc1[N+](=O)[O-] [Example 164, (2S,4R)-1-(2-Nitro-phenyl)-4-(2-trifluoromethyl-benzenesulfonyl)-pyrrolidine-2-carboxylic acid cyanomethyl-amide] | 0.8 nM | ≥ 25000 nM
3 | N#CC1(NC(=O)[C@H]2C[C@@H](S(=O)(=O)c3ccc(-n4cccn4)cc3Cl)CN2C(=O)C2(C(F)(F)F)CC2)CC1 [Example 165, (2R,4R)-4-(2-Chloro-4-pyrazol-1-yl-benzenesulfonyl)-1-(1-trifluoromethyl-cyclopropanecarbonyl)-pyrrolidine-2-carboxylic acid (1-cyano-cyclopropyl)-amide] | 110 nM | ≥ 25000 nM
4 | N#CC1(NC(=O)[C@@H]2C[C@@H](S(=O)(=O)c3ccccc3C(F)(F)F)CN2c2ccccc2[N+](=O)[O-])CC1 [Example 166, (2S,4R)-1-(2-Nitro-phenyl)-4-(2-trifluoromethyl-benzenesulfonyl)-pyrrolidine-2-carboxylic Acid (1-cyano-cyclopropyl)-amide] | 0.6 nM | ≥ 25000 nM
5 | N#CC1(NC(=O)[C@@H]2C[C@@H](S(=O)(=O)c3ccc(Cl)cc3Cl)CN2c2ccccc2[N+](=O)[O-])CC1 [Example 167, (2S,4R)-4-(2,4-Dichloro-benzenesulfonyl)-1-(2-nitro-phenyl)-pyrrolidine-2-carboxylic acid (1-cyano-cyclopropyl)-amide] | 1.4 nM | 17400 nM
6 | N#CC1(NC(=O)[C@@H]2C[C@@H](S(=O)(=O)c3ccc(Cl)cc3Cl)CN2C(=O)C2(C(F)(F)F)CC2)CC1 [Example 168, (2S,4R)-4-(2,4-Dichloro-benzenesulfonyl)-1-(1-trifluoromethyl-cyclopropanecarbonyl)-pyrrolidine-2-carboxylic acid (1-cyano-cyclopropyl)-amide] | 0.6 nM | 8800 nM
7 | N#CC1(NC(=O)[C@@H]2C[C@@H](S(=O)(=O)c3ccc(Cl)cc3Cl)CN2C(=O)C2(C(F)(F)F)CCC2)CC1 [Example 169, (2S,4R)-4-(2,4-Dichloro-benzenesulfonyl)-1-(1-trifluoromethyl-cyclobutanecarbonyl)-pyrrolidine-2-carboxylic acid (1-cyano-cyclopropyl)-amide] | 0.4 nM | 7580 nM
8 | N#CC1(NC(=O)[C@@H]2C[C@@H](S(=O)(=O)c3ccc(Cl)cc3Cl)CN2C(=O)C2CC2(F)F)CC1 (stereo partly drawn) [Example 170, (2S,4R)-4-(2,4-Dichloro-benzenesulfonyl)-1-(2,2-difluoro-cyclopropanecarbonyl)-pyrrolidine-2-carboxylic acid (1-cyano-cyclopropyl)-amide] | 1 nM | 18400 nM
9 | CC(C)(C)OC(=O)N1C[C@H](S(=O)(=O)c2ccc(OCC(F)(F)F)cc2Cl)C[C@H]1C(=O)NC1(C#N)CC1 [Example 171, (2S,4R)-4-[2-Chloro-4-(2,2,2-trifluoro-ethoxy)-benzenesulfonyl]-2-(1-cyano-cyclopropylcarbamoyl)-pyrrolidine-1-carboxylic acid tert.-butyl ester] | 7 nM | ≥ 25000 nM
10 | N#CC1(NC(=O)[C@@H]2C[C@@H](S(=O)(=O)c3ccc(OCC(F)(F)F)cc3Cl)CN2C(=O)C2(C(F)(F)F)CC2)CC1 [Example 172, (2S,4R)-4-[2-Chloro-4-(2,2,2-trifluoro-ethoxy)-benzenesulfonyl]-1-(1-trifluoromethyl-cyclopropanecarbonyl)-pyrrolidine-2-carboxylic acid (1-cyano-cyclopropyl)-amide] | 0.4 nM | 8930 nM
11 | N#CC1(NC(=O)[C@H]2CC(S(=O)(=O)c3ccc(OCC(F)(F)F)cc3Cl)CN2)CC1 (stereo partly drawn) [Example 173, (R)-4-[2-Chloro-4-(2,2,2-trifluoro-ethoxy)-benzenesulfonyl]-pyrrolidine-2-carboxylic acid (1-cyano-cyclopropyl)-amide] | 5.9 nM | 27300 nM
12 | CC(C)(C)OC(=O)N1C[C@H](S(=O)(=O)c2ccc(OC3COC3)cc2Cl)C[C@H]1C(=O)NC1(C#N)CC1 [Example 174, (2S,4R)-4-[2-Chloro-4-(oxetan-3-yloxy)-benzenesulfonyl]-2-(1-cyano-cyclopropylcarbamoyl)-pyrrolidine-1-carboxylic acid tert.-butyl ester] | 3.3 nM | 41500 nM
13 | CC1(C(=O)N2C[C@H](S(=O)(=O)c3ccc(OCC(F)(F)F)cc3Cl)C[C@H]2C(=O)NC2(C#N)CC2)CC1 [Example 175, (2S,4R)-4-[2-Chloro-4-(2,2,2-trifluoro-ethoxy)-benzenesulfonyl]-1-(1-methyl-cyclopropanecarbonyl)-pyrrolidine-2-carboxylic acid (1-cyano-cyclopropyl)-amide] | 0.49 nM | 15900 nM
14 | CC(C)(C)C(=O)N1C[C@H](S(=O)(=O)c2ccc(OCC(F)(F)F)cc2Cl)C[C@H]1C(=O)NC1(C#N)CC1 [Example 176, (2S,4R)-4-[2-Chloro-4-(2,2,2-trifluoro-ethoxy)-benzenesulfonyl]-1-(2,2-dimethyl-propionyl)-pyrrolidine-2-carboxylic acid (1-cyano-cyclopropyl)-amide] | 0.98 nM | 35800 nM
15 | N#CC1(NC(=O)[C@@H]2C[C@@H](S(=O)(=O)c3ccc(OCC(F)(F)F)cc3Cl)CN2C(=O)c2ccccc2C(F)(F)F)CC1 [Example 177, (2S,4R)-4-[2-Chloro-4-(2,2,2-trifluoro-ethoxy)-benzenesulfonyl]-1-(2-trifluoromethyl-benzoyl)-pyrrolidine-2-carboxylic acid (1-cyano-cyclopropyl)-amide] | 0.29 nM | 5830 nM
16 | N#CC1(NC(=O)[C@@H]2C[C@@H](S(=O)(=O)c3ccc(OCC(F)(F)F)cc3Cl)CN2C(=O)C2(c3ccc(Cl)cc3)CC2)CC1 [Example 178, (2S,4R)-1-[1-(4-Chloro-phenyl)-cyclopropanecarbonyl]-4-[2-chloro-4-(2,2,2-trifluoro-ethoxy)-benzenesulfonyl]-pyrrolidine-2-carboxylic acid (1-cyano-cyclopropyl)-amide] | 0.16 nM | 36 nM
17 | CC(C)C(=O)N1C[C@H](S(=O)(=O)c2ccc(OCC(F)(F)F)cc2Cl)C[C@H]1C(=O)NC1(C#N)CC1 [Example 179, (2S,4R)-4-[2-Chloro-4-(2,2,2-trifluoro-ethoxy)-benzenesulfonyl]-1-isobutyryl-pyrrolidine-2-carboxylic acid (1-cyano-cyclopropyl)-amide] | 0.42 nM | 17600 nM
18 | CC(C)CC(=O)N1C[C@H](S(=O)(=O)c2ccc(OCC(F)(F)F)cc2Cl)C[C@H]1C(=O)NC1(C#N)CC1 [Example 180, (2S,4R)-4-[2-Chloro-4-(2,2,2-trifluoro-ethoxy)-benzenesulfonyl]-1-(3-methyl-butyryl)-pyrrolidine-2-carboxylic acid (1-cyano-cyclopropyl)-amide] | 0.47 nM | 21400 nM
19 | N#CC1(NC(=O)[C@@H]2C[C@@H](S(=O)(=O)c3ccc(OC4COC4)cc3Cl)CN2)CC1 [Example 181, (2S,4R)-4-[2-Chloro-4-(oxetan-3-yloxy)-benzenesulfonyl]-pyrrolidine-2-carboxylic acid (1-cyano-cyclopropyl)-amide] | 3.7 nM | 16500 nM
20 | N#CC1(NC(=O)C2C[C@@H](S(=O)(=O)c3ccc(OCC(F)(F)F)cc3Cl)CN2C=O)CC1 (stereo partly drawn) [Example 182, (R)-4-[2-Chloro-4-(2,2,2-trifluoro-ethoxy)-benzenesulfonyl]-1-formyl-pyrrolidine-2-carboxylic Acid (1-cyano-cyclopropyl)-amide] | 9.7 nM | ≥ 25000 nM
21 | C[C@H](Oc1ccc(S(=O)(=O)[C@@H]2C[C@@H](C(=O)NC3(C#N)CC3)N(C(=O)C3(C(F)(F)F)CC3)C2)c(Cl)c1)C(F)(F)F [Example 183, (2S,4R)-4-[2-Chloro-4-((S)-2,2,2-trifluoro-1-methyl-ethoxy)-benzenesulfonyl]-1-(1-trifluoromethyl-cyclopropanecarbonyl)-pyrrolidine-2-carboxylic acid (1-cyano-cyclopropyl)-amide] | 0.44 nM | 9670 nM
22 | C[C@H](Oc1ccc(S(=O)(=O)[C@@H]2C[C@H](C(=O)NC3(C#N)CC3)N(C(=O)C3(C(F)(F)F)CC3)C2)c(Cl)c1)C(F)(F)F [Example 184, (2R,4R)-4-[2-Chloro-4-((S)-2,2,2-trifluoro-1-methyl-ethoxy)-benzenesulfonyl]-1-(1-trifluoromethyl-cyclopropanecarbonyl)-pyrrolidine-2-carboxylic acid (1-cyano-cyclopropyl)-amide] | 32 nM | ≥ 25000 nM
23 | N#CC1(NC(=O)[C@@H]2C[C@@H](S(=O)(=O)c3ccc(Cl)cc3Cl)CN2c2ncccc2C(F)(F)F)CC1 [Example 188, (2S,4R)-4-(2,4-Dichloro-benzenesulfonyl)-1-(3-trifluoromethyl-pyridin-2-yl)-pyrrolidine-2-carboxylic acid (1-cyano-cyclopropyl)-amide] | 6.4 nM | 16700 nM
24 | N#CC1(NC(=O)[C@H]2C[C@@H](S(=O)(=O)c3ccc(Cl)cc3Cl)CN2c2ncccc2C(F)(F)F)CC1 [Example 189, (2R,4R)-4-(2,4-Dichloro-benzenesulfonyl)-1-(3-trifluoromethyl-pyridin-2-yl)-pyrrolidine-2-carboxylic acid (1-cyano-cyclopropyl)-amide] | 665 nM | ≥ 25000 nM

Source: patent publication US8163793B2, “Proline derivatives” (Hoffman-La Roche Inc., priority 2009, dated 2012)
